Laboratory results: patent US11072627B2, “Uridine diphosphate derivatives, compositions and methods for treating neurodegenerative disorders” (Tufts University, priority 2011, dated 2021)
“Also recorded” adds a separate entry of the source. Where two headings read alike, the source gives them in different places.

Key:
P2Y4 receptor = target: T1, P2Y4 receptor (Homo sapiens, UniProt P51582); test: Ca2+ mobilizing effect in 1321N1 cells expressing P2Y4 (fluo-4); format: cell-based; conditions: sodium salt; 1321N1 human astrocytoma cells expressing P2Y4
T1 construct: expressed in transfected cells; host or cells: 1321N1 human astrocytoma cells
Protocol: (§1) Synthetic ligands were tested for activation of P2Y6 receptor by measuring receptor induced Ca^2+ changes with the fluorescent Ca^2+ indicator fluo-4. 1321N1 human astrocytoma cell lines either expressing P2Y2, P2Y4 or P2Y6 receptors were plated into 24-well plates. Two days after plating, fluorometric measurements were made and responses of cells to a serial dilution of ligands were determined. P2Y6 mediated Ca^2+ fluorescent change was determined by normalized accumulation of fluorescent change of 3 timepoints after ligand administration subtracted by value from ACSF control. Changes in fluorescent intensity were plotted corresponding to ligand concention in GraphPad. Dose-response curve and EC50 for each ligand was estimated using nonlinear curve fit and Sigmoidal dose-response analysis. […]
(§2) Synthetic ligands were tested for activation of P2Y6 receptor by measuring receptor induced Ca^2+ changes with the fluorescent Ca^2+ indicator fluo-4, and results are shown in FIG. 10(A)-(K). […] Two days after plating, fluorometric measurements were made and responses of cells to a serial dilution of ligands were determined. P2Y6 mediated Ca^2+ fluorescent change was determined by normalized accumulation of fluorescent change of 3 timepoints after ligand administration subtracted by value from ACSF control. […]

P2Y2 receptor = target: T2, P2Y2 receptor (Homo sapiens, UniProt P41231); test: Ca2+ mobilizing effect in 1321N1 cells expressing P2Y2 (fluo-4); format: cell-based; conditions: sodium salt; 1321N1 human astrocytoma cells expressing P2Y2
T2 construct: expressed in transfected cells; host or cells: 1321N1 human astrocytoma cells
Protocol: as §1, §2

PSAPP mice [1] = test: Postmortem immunohistochemistry of plaque load in cortex and hippocampus; format: in vivo, mouse; conditions: for decrease in plaque load: acute i.c.v. UDP
P2Y6 receptor [2] = target: T3, P2Y6 receptor (Homo sapiens, UniProt Q15077); test: Activation of P2Y6 receptor, receptor induced Ca2+ changes with fluo-4; format: cell-based; design: expressed in transfected cells; host or cells: 1321N1 human astrocytoma cells
Protocol: (§3) Synthetic ligands were tested for activation of P2Y6 receptor by measuring receptor induced Ca^2+ changes with the fluorescent Ca^2+ indicator fluo-4. 1321N1 human astrocytoma cell lines either expressing P2Y2, P2Y4 or P2Y6 receptors were plated into 24-well plates. Two days after plating, fluorometric measurements were made and responses of cells to a serial dilution of ligands were determined. P2Y6 mediated Ca^2+ fluorescent change was determined by normalized accumulation of fluorescent change of 3 timepoints after ligand administration subtracted by value from ACSF control. Changes in fluorescent intensity were plotted corresponding to ligand concention in GraphPad. Dose-response curve and EC50 for each ligand was estimated using nonlinear curve fit and Sigmoidal dose-response analysis. […] The ability of the sodium salt of compound 5 to elevate Ca^2+ signals in P2Y6 expressing cells was attenuated by addition of the P2Y6 antagonist MRS2578.
as §3, with “fluo-4, and results are shown in FIG. 10(A)-(K).” for “fluo-4.”

PSAPP mice [3] = test: Contextual fear conditioning test; format: in vivo, mouse
Excerpt: (§4) Heterozygous mutant (K670N/M671L) APP (50% C57B6, 50% SJL) transgenic mice were crossed with heterozygous mutant (A246E) PS-1 (50% C57B6, 50% SJL) transgenic mice to generate heterozygous PSAPP transgenic mice (also referred to as PS-1/APP or PSAPP+/+ mice), which refers to animals heterozygous for the PS-1 A246E transgene and the APP K670N/M671L transgene. Non-transgenic control animals were littermates (also referred to as PSAPP_−/− mice) generated in the breeding for PSAPP transgenic animals. Mouse genotype was determined by Polymerase Chain Reaction (PCR). Both male and female mice of 6-7 months old were used for the experiments below. All animal experiments were performed in accordance with the Tufts Animal Care and Use Committee and with national regulations and policies.
On day one, animals were trained in a fear conditioning apparatus for a total of 7 minutes with a two-pairing paradigm of cue and mild foot shock (a 30-s acoustic-conditioned stimulus, 80 dB; a 2-s shock stimulus, 0.5 mA). To evaluate contextual fear learning, the animals were returned to the training context 24 hours post-training, and freezing behavior was scored for 5 minutes. Freezing behavior was monitored by MotorMonitor (Hamilton Kinder) and scored every 5 seconds.
In this study, the fear conditioning associative learning paradigm was used as a rapid cognition assay for PSAPP mice. This study allowed us to probe cognitive function with a single training day followed in 24 hours by tests for contextual and cued fear learning. Contextual fear learning is dependent upon a brain area that has been implicated as a locus for cognitive decline in AD: the hippocampus. Two pairings of CS-US for fear conditioning were followed 24 hours later by testing for contextual and cued fear learning. Previous studies have reported that PSAPP animals appear to have a selective hippocampus-dependent impairment in associative learning following two pairings of conditioned stimuli for fear conditioning.
This represents a decrease in the cognitive impairment observed in the untreated mice.

PSAPP mice [4] = test: Postmortem immunohistochemistry of plaque load in cortex and hippocampus; format: in vivo, mouse; conditions: for immunoreactivity of β1-40 (plaque load): i.p. for 4 and 6 consecutive days
Excerpt: as §4
Mice were perfused transcardially with 4% paraformaldehyde and 40 μm Coronal sections were collected. Sections were sequentially incubated in 0.3% H2O2 for 10 minutes, blocking solution for 2 hrs, blocking solution containing the primary antibody (rabbit anti-beta1-42; rabbit anti-beta1-40, from Chemicon International and rat anti-CD45) for 48 hours at 4° C., and blocking solution containing biotinylated antibody or fluorescently-labeled antibody for 2 hours at room temperature. Sections were visualized in a bright field microscope or a confocal microscope, and the optical density was obtained using MetaMorph software.
After repeated imaging, brains were fixed and subjected to postmortem immunohistochemistry with amyloid beta specific antibodies β1-40 and β1-42 to evaluate the plaque load (area occupied by immunostaining of plaque) in cortex and hippocampus.
PSB0474 was systemically administered to PSAPP mice via intraperitoneal injection for 2, 4 and 6 consecutive days. In one group, prior to evaluation and following to administration for 6 consecutive days, treatment was suspended for two weeks (6+2 weeks group). Brains were then fixed and plaque load was evaluated by immunostaining with the amyloid beta specific antibodies: β1-40 and β1-42. Representative images of plaque load in cortex and hippocampus from animals that received injections of PSB0474 according to the foregoing injection schedules are shown in FIG. 5(A)-(D). […] Whereas, when administration of PSB0474 was stopped for 2 weeks following six consecutive days of treatment (denoted as the 6+2 weeks group), β1-40 staining rebounded; although to a level lower than observed in mice treated with saline as a vehicle control. […]
To generate these graphs showing plaque load, mice were euthanized, brain sections cut and antibodies directed against Aβ 42 were used to disclose Aβ plaques. […] The algorithm then calculated the percent area of the field of view occupied by the plaques.

P2Y6 receptor [5] = target: T3, P2Y6 receptor; conditions: cited from earlier work
PSAPP mice [6] = test: Tolerability of increased dose of PSB0474; format: in vivo, mouse; conditions: 1000× increase in dose
PSAPP mice [7] = test: Soluble Abeta level detected with ELISA; format: in vivo, mouse; conditions: UDP treatment
PSAPP mice [8] = test: Hippocampal long-term potentiation (LTP) recording; format: in vivo, mouse
Protocol: Hippocampal slices ([…] thick) were prepared from 6-month-old PSAPP mice. Baseline responses were obtained every 10 seconds and Input-output (I/O) curves, paired-pulse modification and LTP were successively measured. The stimulation intensity was set to a level that gives a value of 30% of the maximum obtained. LTP were induced by high frequency stimulation (HFS, 100 pulses at 100 Hz, four times) or by theta-burst stimulation (TBS, 10 bursts at 5 Hz, repeated 10 times in 15 s intervals).
Accumulated evidence has shown that amyloid peptides naturally secreted or isolated from Alzheimer's brains impair synaptic plasticity, especially hippocampal long-term potentiation (Walsh et al., 2002). Therefore, we further performed LTP recordings in PASPP mice and investigated whether P2Y6 receptor-mediated plaque clearance affects synaptic plasticity. […] First, it was observed that LTP at the schaffer collateral synapse within the CA1 region was depressed in PSAPP mice, as compared with littermates (FIG. 8(A)).

PSAPP mice [9] = test: Two-photon in vivo imaging of amyloid plaques in barrel cortex; design: species or system mouse
Excerpt: as §4
In this study, PSAPP mice were anesthetized using isoflurane and a thin-skull preparation was used to minimize the surface damage. Amyloid plaques were visualized with methoxyX04 labeling and blood plasma was labeled with Rhodamine dextran to facilitate re-localization of the same imaging area. Stack images were obtained using a two-photon system (Prairie Technologies) with excitation at 850 nm. The emission was detected by external photomultiplier tubes (525/70; DLCP 575; 607/45 nm).
Animals were anesthetized and immobilized in a stereotaxic frame. For each injection, 1 μl of 10 mM UDP or other suitable compounds in artificial cerebrospinal fluid (ACSF) as the vehicle were injected intraventricularly using the following coordinates: AP 0.2 mm, ML 1 mm, and DV 2.2 mm.
To evaluate the effect of UDP on plaque burden, two-photon microscopy was used to assess the amyloid plaques in the barrel cortex in living PSAPP mice. Amyloid plaques were stained by systemically administered methoxy-X04. One day prior to imaging, PSAPP mice were injected with methoxyX04 to label the amyloid plaques. On the imaging day, to facilitate the re-location of the same imaging area, blood plasma was labeled with Rhodamine dextran. Images were obtained from the same start- and end-point to ensure the same image volume.
The results were shown in a maximum intensity projection of a fluorescent stack containing 45 planes. Immediately after imaging, animals were injected with ACSF or UDP intracerebroventricularly (i.c.v.) and allowed to recover. On day 4, animals were subjected to a second period of imaging of the same regions studied on day 1 and the results are shown in FIG. 1(D)-(F). The similar pattern of angiopathy (shown by open arrows) indicated the same imaging area.

[10] = acute i.c.v. UDP, barrel cortex, day 4 vs day 1, P<0.01

T3 sequence (Q15077 whole entry): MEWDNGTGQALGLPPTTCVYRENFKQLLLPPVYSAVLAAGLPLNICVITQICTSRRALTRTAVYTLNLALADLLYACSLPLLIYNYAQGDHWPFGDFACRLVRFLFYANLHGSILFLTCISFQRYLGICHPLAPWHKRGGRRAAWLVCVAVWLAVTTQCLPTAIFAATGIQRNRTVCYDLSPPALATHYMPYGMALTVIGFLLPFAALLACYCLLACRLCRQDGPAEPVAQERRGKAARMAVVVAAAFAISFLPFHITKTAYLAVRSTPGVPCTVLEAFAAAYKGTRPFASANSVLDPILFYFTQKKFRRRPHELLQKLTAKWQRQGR
T2 sequence (P41231 whole entry): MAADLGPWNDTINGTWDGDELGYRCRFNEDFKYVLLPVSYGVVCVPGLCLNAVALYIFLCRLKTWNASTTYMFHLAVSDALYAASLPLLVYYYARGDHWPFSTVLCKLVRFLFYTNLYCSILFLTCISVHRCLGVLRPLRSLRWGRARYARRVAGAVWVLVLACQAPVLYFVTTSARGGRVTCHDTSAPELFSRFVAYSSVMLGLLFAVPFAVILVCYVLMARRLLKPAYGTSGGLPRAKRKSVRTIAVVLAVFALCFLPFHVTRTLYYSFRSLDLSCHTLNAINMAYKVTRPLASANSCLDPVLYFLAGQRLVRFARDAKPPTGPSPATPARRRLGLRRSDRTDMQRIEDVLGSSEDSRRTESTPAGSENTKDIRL
T1 sequence (P51582 whole entry): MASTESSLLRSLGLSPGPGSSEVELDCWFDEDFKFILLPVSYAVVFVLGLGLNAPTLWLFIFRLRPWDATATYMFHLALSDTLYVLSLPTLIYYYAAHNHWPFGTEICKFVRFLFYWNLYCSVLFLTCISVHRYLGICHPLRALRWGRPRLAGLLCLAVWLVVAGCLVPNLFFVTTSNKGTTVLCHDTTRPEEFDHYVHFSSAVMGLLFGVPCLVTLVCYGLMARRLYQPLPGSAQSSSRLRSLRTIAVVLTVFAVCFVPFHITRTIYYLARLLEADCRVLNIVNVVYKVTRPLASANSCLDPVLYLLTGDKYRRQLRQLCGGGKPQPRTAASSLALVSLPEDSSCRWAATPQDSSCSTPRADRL

In the case of `O=c1ccn([C@@H]2O[C@H](COP(=O)(O)OP(=O)(O)O)[C@H](O)C2O)c(=O)n1Cc1noc2ccccc12` (stereo partly shown) [compound 5], the “elevating Ca2+ levels in P2Y4 receptor expressing cells” value (P2Y4 receptor) is reported as “not effective”, the “elevating Ca2+ levels in P2Y2 receptor expressing cells” value (P2Y2 receptor) is reported as “not effective” and the “Aβ plaque load (%) in the cortex vs vehicle control” value (PSAPP mice [1]; FIG. 12A, β1-42 antibody, compound 5 i.p. 7 days) is reported as “substantial decrease”. The “Aβ plaque load (%) in the hippocampus vs vehicle control” value (PSAPP mice [1]; FIG. 12B, β1-42 antibody, compound 5 i.p. 7 days) was “substantial decrease”, the “elevating Ca2+ levels in cells expressing P2Y6 receptors” value (P2Y6 receptor [2]; sodium salt, 1321N1 human astrocytoma cells expressing P2Y6) was “only effective” and the EC50 (P2Y6 receptor [2]; sodium salt, 1321N1 human astrocytoma cells expressing P2Y6, fluo-4 Ca2+) was 12 nM. The “freezing behavior compared to the control treatment” value (PSAPP mice [3]; FIG. 11, compound 5 prior to the test) was “significantly improved; also recorded: restored to a level equivalent to that observed in wildtype animals” and the “total freezing percentage in the context test” value (PSAPP mice [3]; compound 5 i.p. daily for 7 consecutive days, 1 ug/kg or 1 mg/kg) was “increased”.
In the case of `O=C(Cn1c(=O)ccn([C@@H]2O[C@H](COP(=O)(O)OP(=O)(O)O)[C@@H](O)[C@H]2O)c1=O)c1ccccc1` [PSB0474, 3-phenacyl-UDP], the “β1-40 staining after stopping treatment” value (PSAPP mice [4]; 6 consecutive days i.p., then stopped for 2 weeks (6+2 weeks group), level lower than saline control) is reported as “rebounded”, the “immunoreactivity of β1-40 (plaque load)” value (PSAPP mice [4]; cortex) is reported as “significantly decreased” and the “effects on the efficacy endpoint at higher dose” value (PSAPP mice [4]; higher dose of 1 mg/kg, one week daily treatment) is reported as “smaller effects”. For the same compound, the “immunoreactivity of β1-40 (plaque load)” value (PSAPP mice [4]; hippocampus) was “significantly decreased”, the EC50 (P2Y6 receptor [5]; P2Y6 receptor agonist) was 70 nM and the “selectivity for P2Y6 receptor” value (P2Y6 receptor [5]) was greater than 500 fold. For the same compound, the “detrimental effects to the animal” value (PSAPP mice [6]) was “did not cause detrimental effects”, the “memory deficit compared to vehicle treatment” value (PSAPP mice [3]; FIG. 9C, one week treatment with 1 ug/kg) was “rescued the memory deficit” and the “total freezing percentage in context test” value (PSAPP mice [3]; chronic injection of PSB0474, two different doses) was “increased”.
For `O=c1ccn([C@@H]2O[C@H](COP(=O)(O)OP(=O)(O)O)[C@@H](O)[C@H]2O)c(=O)[nH]1` [UDP, uridine diphosphate], the “soluble Aβ40 level” value (PSAPP mice [7]; FIG. 4E) was “decreased”, the “soluble Aβ42 level” value (PSAPP mice [7]; FIG. 4F) was “decreased” and the “field excitatory postsynaptic potential (fEPSP), last 15 min potentiation” value (PSAPP mice [8]; UDP treatment, comparable to level in littermates) was “significant increase”. For the same compound, the “LTP at schaffer collateral synapse, CA1” value (PSAPP mice [8]; acute UDP treatment vs ACSF, HFS) was “reversed this LTP deficit”, the “day 4/day 1 ratios of plaque load” value (PSAPP mice [9]; FIG. 2D, UDP vs ACSF, barrel cortex) was “significant reductions” and the “day 4/day 1 ratios, number of plaques” value (PSAPP mice [9]; FIG. 2E, UDP vs ACSF, barrel cortex) was “significant reductions”. The “reduction in plaque load” value (PSAPP mice [9]; [10]) was 17.2%, the “reduction in the number of plaques” value (PSAPP mice [9]; [10]) was 12.6% and the “reduction in cross-sectional area of individual identified plaques” value (PSAPP mice [9]; acute i.c.v. UDP, second imaging session, P<0.01) was 18.2%. For the same compound, the “decrease in plaque load” value (PSAPP mice [1]; cortex, β1-40 antibody, p<0.05) was 60%, the “decrease in plaque load” value (PSAPP mice [1]; cortex, β1-42 antibody, P<0.01) was 48% and the “decrease in plaque load” value (PSAPP mice [1]; hippocampus, β1-40 antibody, p<0.01) was 62%. The “decrease in plaque load” value (PSAPP mice [1]; hippocampus, β1-42 antibody, P<0.05) was 47%, the “freezing behavior compared to ACSF treatment” value (PSAPP mice [3]; FIG. 7C, UDP-treatment 3 days prior to the test) was “significantly improved” and the “freezing behavior during 5 minute-testing time” value (PSAPP mice [3]; UDP treatment, during the first 4 minutes, not the last minute) was “increased freezing behavior”. For the same compound, the total freezing percentage (PSAPP mice [3]; acute UDP i.c.v., contextual test, ACSF control 18%±3%) was 49%±5%.
In the case of `S=C=Nc1cccc(NC(=S)NCCCCNC(=S)Nc2cccc(N=C=S)c2)c1` [MRS2578], the “effect of antagonist on ability of sodium salt of compound 5 to elevate Ca2+ signals” value (P2Y6 receptor [2]; P2Y6 expressing cells, MRS2578 added) is reported as “attenuated”.
